Data taken from patent publication US9751854B2 (Millennium Pharmaceuticals, Inc., priority 2014, dated 2017).
pIC50: −log10 of the molar value.

Target: human VPS34 (Homo sapiens (Human), UniProt Q8NEB9)
Test: Human VPS34 enzyme assay (Adapta TR-FRET ADP detection)
Format: biochemical
Set-up: Percent Inhibition: dose or concentration left out as unconfirmed
Details: for pIC50: IC50 range class

human VPS34, sequence (Q8NEB9 whole entry): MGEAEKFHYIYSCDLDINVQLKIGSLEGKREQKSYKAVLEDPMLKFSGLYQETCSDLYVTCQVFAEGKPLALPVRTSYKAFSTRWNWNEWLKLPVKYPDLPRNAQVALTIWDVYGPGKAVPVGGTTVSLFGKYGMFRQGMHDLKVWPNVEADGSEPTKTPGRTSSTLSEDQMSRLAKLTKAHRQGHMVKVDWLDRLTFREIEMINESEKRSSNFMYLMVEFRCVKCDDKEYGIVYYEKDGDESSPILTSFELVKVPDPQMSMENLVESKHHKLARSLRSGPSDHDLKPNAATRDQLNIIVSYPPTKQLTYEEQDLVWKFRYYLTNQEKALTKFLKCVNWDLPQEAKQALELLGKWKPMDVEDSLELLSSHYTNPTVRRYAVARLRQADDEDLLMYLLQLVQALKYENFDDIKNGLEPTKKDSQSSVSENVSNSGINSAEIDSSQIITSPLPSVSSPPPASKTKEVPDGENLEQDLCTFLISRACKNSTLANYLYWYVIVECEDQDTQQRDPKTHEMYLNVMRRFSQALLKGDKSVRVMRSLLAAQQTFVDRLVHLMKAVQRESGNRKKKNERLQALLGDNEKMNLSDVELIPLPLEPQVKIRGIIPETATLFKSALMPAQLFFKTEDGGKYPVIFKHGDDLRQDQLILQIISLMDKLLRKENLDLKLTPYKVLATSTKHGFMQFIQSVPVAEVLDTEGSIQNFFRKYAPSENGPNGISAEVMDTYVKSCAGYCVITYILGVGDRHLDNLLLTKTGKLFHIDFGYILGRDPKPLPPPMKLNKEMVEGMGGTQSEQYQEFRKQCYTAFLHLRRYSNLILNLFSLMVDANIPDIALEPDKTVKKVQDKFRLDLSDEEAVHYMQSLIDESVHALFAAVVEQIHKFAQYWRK

| pIC50 | Percent Inhibition | Structure (SMILES) |
| --- | --- | --- |
| 7.30 to 8.00 | – | CC(=O)Nc1cc(-c2cnc(C)c(N3CC(N(C)C)CS3(=O)=O)c2)ccn1 (single isomer, unassigned) [Compound I-496, N-(5-(4-(dimethylamino)-1,1-dioxidoisothiazolidin-2-yl)-6-methyl-[3,4′-bipyridin]-2′-yl)acetamide] |
| 7.00 to 7.30 | – | COc1ncc(-c2ccnc(NC(C)=O)c2)cc1C(=O)N(C)C [Compound I-127, 2′-acetamido-6-methoxy-N,N-dimethyl-3,4′-bipyridine-5-carboxamide] |
| > 8.00 | – | CC(=O)Nc1cc(-c2cnc3[nH]cc(S(=O)(=O)N4CCN(C)CC4)c3c2)ccn1 [Compound I-103, N-(4-{3-[(4-methylpiperazin-1-yl)sulfonyl]-1H-pyrrolo[2,3-b]pyridin-5-yl]pyridin-2-yl)acetamide] |
| < 7.00 | – | CC(=O)Nc1cc(-c2cncc(N(CCO)S(=O)(=O)c3ccc(F)cc3F)c2)ccn1 [Compound I-384, N-(5-{[(2,4-difluorophenyl)sulfonyl](2-hydroxyethyl)amino}-3,4′-bipyridin-2′-yl)acetamide] |
| > 8.00 | – | CC(=O)Nc1cc(-c2cnc(C)c(NS(=O)(=O)c3ccc(F)cc3F)c2)c(F)cn1 [Compound I-161, N-(5-{[(2,4-difluorophenyl)sulfonyl]amino}-5′-fluoro-6-methyl-3,4′-bipyridin-2′-yl)acetamide] |
| 7.00 to 7.30 | – | CNc1ncc(-c2ccnc(NC(C)=O)c2)c(C)c1S(=O)(=O)NC(C)(C)C [Compound I-436] |
| 7.30 to 8.00 | – | Cc1ncc(-c2ccnc(NC(=O)C3CCC3)c2)cc1NS(=O)(=O)c1ccc(F)cc1F [Compound I-305, N-(5-{[(2,4-difluorophenyl)sulfonyl]amino}-6-methyl-3,4′-bipyridin-2′-yl)cyclobutanecarboxamide] |
| 7.30 to 8.00 | – | CC(=O)Nc1cc(-c2cnc(C)c(NS(=O)(=O)c3ccc(F)cc3F)c2C)ccn1 [Compound I-247, N-(5-{[(2,4-difluorophenyl)sulfonyl]amino}-4,6-dimethyl-3,4′-bipyridin-2′-yl)acetamide] |
| 7.30 to 8.00 | – | CC(=O)Nc1cc(-c2cnc(C)c(C(=O)N(C)c3ccc(F)cc3F)c2)ccn1 [Compound I-485, 2′-acetamido-N-(2,4-difluorophenyl)-N,6-dimethyl-3,4′-bipyridine-5-carboxamide] |
| 7.30 to 8.00 | – | CC(=O)Nc1cc(-c2cnc3cnn(S(=O)(=O)C4CC4)c3c2)ccn1 [Compound I-2, N-{4-[1-(cyclopropylsulfonyl)-1H-pyrazolo[4,3-b]pyridin-6-yl]pyridin-2-yl}acetamide] |
| 7.30 to 8.00 | 83% | Cc1ncc(-c2ccnc(NC(=O)C3CC3(F)F)c2)cc1NS(=O)(=O)N(C)C (single isomer, unassigned) [Compound I-498] |
| < 7.00 | – | CC(=O)Nc1cc(-c2cnc(N)c(N3CCCC3=O)c2)ccn1 [Compound I-337, N-[6-amino-5-(2-oxopyrrolidin-1-yl)-3,4′-bipyridin-2′-yl]acetamide] |
| < 7.00 | >99% | CC(=O)Nc1cc(-c2cnc(Cl)c(S(=O)(=O)N[C@H](CO)c3ccccc3)c2)ccn1 [Compound I-330, N-(6-chloro-5-{[(1S)-2-hydroxy-1-phenylethyl]sulfamoyl}-3,4′-bipyridin-2′-yl)acetamide] |
| 7.30 to 8.00 | – | O=C(Nc1cc(-c2cnc3[nH]ncc3c2)ccn1)C1CC1 [Compound I-117, N-[4-(1H-pyrazolo[3,4-b]pyridin-5-yl)pyridin-2-yl]cyclopropanecarboxamide] |
| 7.30 to 8.00 | – | Cc1nccc(Nc2cc(-c3cnc(C)c(C(=O)NCC4CC4)c3)ccn2)n1 [Compound I-285, N-(cyclopropylmethyl)-6-methyl-2′-((2-methylpyrimidin-4-yl)amino)-[3,4′-bipyridine]-5-carboxamide] |
| > 8.00 | – | COC(=O)Nc1cc(-c2cnc(C)c(NS(=O)(=O)c3ccc(F)cc3F)c2)ccn1 [Compound I-195, methyl (5-{[(2,4-difluorophenyl)sulfonyl]amino}-6-methyl-3,4′-bipyridin-2′-yl)carbamate] |
